We go through one compound from patent US20250123282A1, “METHODS FOR EVALUATION AND TREATMENT OF TYROSINE KINASE INHIBITOR (TKI)-RESISTANT ACUTE MYELOID LEUKEMIA” (LOMA LINDA UNIVERSITY, priority 2021, published 2025).

For this assay, the system named is MV4-11. Kind of assay: GILT-based combinatory treatments for MV4-11 in vitro (synergy, relapse, FACS, imaging). It counts as cell-based, human. An excerpt: FLT3, the most frequently mutated gene in AML patients, is often associated with poorer overall survival with an increased risk of relapse. However, the anti-leukemic effects of the latest FLT3 inhibitors as monotherapy or in combination with standard treatments are constrained by a short duration of response and a high rate of relapse. Accordingly, whether targeting the compensation pathways along with administration of FLT3 inhibitors, e.g., GILT, prevents relapse. A list of the in vitro trials of GILT in combination with inhibitors (commercially available) targeting new pathways on MV4-11 is provided in Table 1. […]
Flow Cytometry (FACS). […] About 1×10^4˜10^6 cells in 100 μl FACS buffer (PBS containing 1% FBS and 0.05% sodium azide) were stained with various fluorescence-conjugated antibodies specific for the desired cell surface proteins at 4° C. for 30 min. The surface-stained cells were then fixed and permeabilized using the appropriate reagents (e.g. the BD Pharmingen Cytofix/Cytoperm buffer) and stained with different fluorescence-conjugated antibodies specific for the desired intracellular proteins at 4° C. for 2 hours in the permeabilizing buffer (e.g. the BD Perm/Wash buffer). […] Finally, the cells were washed twice in the permeabilizing buffer and twice in the FACS buffer before being analyzed on the BD FACSAria II. […]

For `CCc1nc(C(N)=O)c(Nc2ccc(N3CCC(N4CCN(C)CC4)CC3)c(OC)c2)nc1NC1CCOCC1` [GILT, Gilteritinib], under “MV4-11, 3 days after combination treatment”, the “population of viable blasts (FACS)” value turned out to be 26.9%. Under “MV4-11, 7 days after combination treatment”, the “viable Ki67+CD33+CD44+ cells (cell number count)” value is on record as 180 cells.
